Results from PubChem BioAssay (NCI).
Several values for one entry are separate records, joined by “and”; a condition that tells them apart may be missing. Identical values can stand only once.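 96-well plates; 48 h exposure; 5 concentrations. Endpoints by linear interpolation between flanking doses. Not reached: highest tested concentration assigned. Abbreviation: GI50, concentration required for 50% inhibition of growth. The concentration for full growth arrest is given as TGI.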

What was measured:
Experiment in all cases: NCI-60 cell line screen, 48 h
OVCAR-3 ovarian = test system: OVCAR-3 ovarian
UACC-62 melanoma = test system: UACC-62 melanoma
UACC-257 melanoma = test system: UACC-257 melanoma
ACHN renal = test system: ACHN renal
SK-MEL-5 melanoma = test system: SK-MEL-5 melanoma
RPMI-8226 leukemia = test system: RPMI-8226 leukemia
NCI-H226 lung = test system: NCI-H226 lung
A498 renal = test system: A498 renal
SK-OV-3 ovarian = test system: SK-OV-3 ovarian
SR leukemia = test system: SR leukemia

Structure (SMILES)	TGI (OVCAR-3 ovarian)	TGI (UACC-62 melanoma)	TGI (UACC-257 melanoma)	GI50 (ACHN renal)	TGI (ACHN renal) [µM]	TGI (SK-MEL-5 melanoma)	TGI (RPMI-8226 leukemia)	TGI (NCI-H226 lung)	GI50 (A498 renal)	TGI (A498 renal)	GI50 (OVCAR-3 ovarian) [µM]	GI50 (UACC-62 melanoma) [µM]	GI50 (SK-OV-3 ovarian) [µM]	TGI (SK-OV-3 ovarian) [µM]	GI50 (UACC-257 melanoma) [µM]	GI50 (SR leukemia) [µM]	TGI (SR leukemia) [µM]	GI50 (SK-MEL-5 melanoma) [µM]	GI50 (RPMI-8226 leukemia) [µM]	GI50 (NCI-H226 lung) [µM]
CC[C@H]1CN2CCc3cc(OC)c(OC)cc3[C@@H]2C[C@@H]1C[C@H]1NCCc2cc(O)c(OC)cc21	0.0774 µM and 0.287 µM	0.0725 µM and 0.0247 µM and 0.105 µM	0.104 µM and 0.346 µM	0.0221 µM and < 0.0115 µM	0.0758	0.0424 µM and 0.0157 µM and 0.114 µM	0.0779 µM and 0.0542 µM	0.0593 µM and 0.0285 µM	0.0165 µM and 0.025 µM	0.0461 µM and 0.0583 µM										
OCCCN=NNc1ccc(-c2nc3ccccc3[nH]2)cc1	5.13 µM	50.8 µM	> 100 µM	24.4 µM	64	88.6 µM	> 100 µM	58.9 µM			2.31	17.6	24.2	73	10.4	29.9	> 100	15.6	34.2	26.2
CCn1cc(/C=C/C(C)c2cn(CC)c(=O)[nH]c2=O)c(=O)[nH]c1=O (stereo not given)	> 100 µM	> 100 µM	> 100 µM		> 100	> 100 µM	> 100 µM							> 100						
CC1=CC(=O)CCC2(C)C1CC[C@@H]2OC=O (stereo not given in full)	> 100 µM	> 100 µM	> 100 µM		> 100	> 100 µM	> 100 µM	> 100 µM						> 100			> 100			
COc1ccc(-c2ccc(/C=N/n3c(COc4ccccc4Cl)nn(CN4CCN(C)CC4)c3=S)o2)c([N+](=O)[O-])c1		44.9 µM		23.1 µM	50.1			43.5 µM				19.2	30.6	83.8						15.6
CCCCCCCC/C=C/CCCCCCCCC1=NCCN1CCO	25.7 µM	11 µM	25 µM	2.6 µM	8.39	19.9 µM		33.7 µM	2.34 µM	15.5 µM	11.5	3.05	16.1	33.6	11.8	1.9	4.95	5.84		9.91
COC(=O)c1ccc2c(c1)nc(-c1cc3ccccc3[nH]c1=O)n2-c1cc(C(C)(C)C)[nH]n1	> 100 µM			> 100 µM	> 100	> 100 µM		> 100 µM	3.99 µM	> 87.7 µM	4.5		> 53.4	> 100		12.8	> 100	2.61	0.443	16.5
COc1cc(C(=O)/C=C/c2cc(C(=O)c3cc(OC)c(OC)c(OC)c3)ccc2OC)ccc1N	4.17 µM	2.66 µM	3.14 µM	1.08 µM	4.49	2.18 µM	14.1 µM	7.39 µM	2.14 µM	5.92 µM	0.448	1.17	3.16	16.1	1.32			1.02	0.419	2.14
COc1ccc(/C(=N/NC(=O)NN)C(c2ccc(OC)cc2)C2(O)CNc3c(Cl)cc(Cl)cc32)cc1 (stereo not given)	> 100 µM	> 100 µM	> 100 µM		> 100	> 100 µM	> 100 µM	> 100 µM		> 100 µM				> 100						
COC1(OC)CC2C=C(S(=O)(=O)c3ccccc3)C1N(Cc1ccccc1)C2=O (stereo not given)	56.6 µM	58.4 µM	> 100 µM		> 100	> 100 µM		75.9 µM		57.1 µM				> 100			> 100			
O=C(OCc1ccccc1)N1CCN(/[N+]([O-])=N/Oc2ccc([N+](=O)[O-])cc2[N+](=O)[O-])CC1	6.96 µM	20.8 µM	36.5 µM	7.12 µM	26.6	21.1 µM	6.1 µM	26.3 µM			3.01	6.72			19.5	4.7	> 100	6.43	2.23	3.55
CC1C[C@H](OC(N)=O)C(C)CC1=O (stereo not given in full)	> 100 µM	> 100 µM	> 100 µM		> 100	> 100 µM	> 100 µM			> 100 µM				> 100						
CCC[CH2][Sn]([CH2]CCC)([O]C(=O)c1cc(F)cc(F)c1)[O]C(=O)c1cc(F)cc(F)c1	2.65 µM	2.31 µM	2.28 µM	1.33 µM	2.61	2.61 µM		2.65 µM	1.49 µM	2.83 µM	1.36	1.11	2.45	5.45	1.09	0.459	3.29	1.34		1.34
N#Cc1c(-c2ccc(Cl)cc2)n(O)c2ccccc12	6.39 µM	12.3 µM	6.31 µM	3.68 µM	91.2	2.06 µM	6.48 µM	12 µM	1.38 µM	4.09 µM	2.6	2.79	2.17	5.16	2.27			0.557	1.6	2.83
O=C1C(Br)=CC2(C=C1Br)CCN=c1c2c(O)c2nc3ccccc3c3ccnc1c23	8.14 µM	10.7 µM		0.753 µM	1.7	6.93 µM	1.57 µM		1.6 µM	6 µM	1.51	3.31	5.03	11		0.195	5.83	1.4	0.591	
O=C(O)C1C(C(=O)Nc2ccc3c(c2)Cc2ccccc2-3)C2(Cl)C(Cl)=C(Cl)C1(Cl)C2(Cl)Cl (stereo not given)	35.9 µM	31.1 µM	48.2 µM		> 100	27.5 µM	32 µM	88 µM		47.7 µM				> 100						
Brc1ccc(-c2nnc(-c3nn(-c4ccccc4)c4nc5ccccc5nc34)o2)cc1	> 100 µM	> 100 µM	> 100 µM		> 100	84.5 µM	> 100 µM	> 100 µM						> 100			> 100			
